Experimental data published in US7968721B2, “Large-scale synthesis of selective androgen receptor modulators” (University of Tennessee Research Foundation, priority 2003, dated 2011).

How the values were obtained:
spermatogenesis = details: weekly intramuscular injections, men receiving therapy; cited from earlier work
androgen receptor = test system: androgen receptor
Excerpt: Assays to determine whether the compounds of the present invention are AR agonists or antagonists are well known to a person skilled in the art. For example, AR agonistic activity can be determined by monitoring the ability of the SARM compounds to maintain and/or stimulate the growth of AR containing tissue such as prostate and seminal vesicles, as measured by weight. AR antagonistic activity can be determined by monitoring the ability of the SARM compounds to inhibit the growth of AR containing tissue.

Row | SMILES | men with azoospermia or severe oligospermia (less than 3 million sperm per ml) and infertility (spermatogenesis) | action at the androgen receptor in vivo (androgen receptor) | anabolic and androgenic effects in vivo (androgen receptor)
1 | CCCCCCC(=O)O[C@H]1CC[C@H]2[C@@H]3CCC4=CC(=O)CC[C@]4(C)[C@H]3CC[C@]12C [testosterone enanthate] | 98% |  | 
2 | CC(=O)Nc1ccc(OC[C@](C)(O)C(=O)Nc2ccc([N+](=O)[O-])c(C(F)(F)F)c2)cc1 [Compound (1), 3-[4-(acetylamino)phenoxy]-2-Hydroxy-2-methyl-N-[3trifluoromethyl-4-nitro-phenyl)-proprionamide] |  | partial agonist | strong anabolic and weakly androgenic effects
